{"source": "patent US20250144125A1", "about": "(priority 2021, published 2025)", "key": {"[1]": {"test_system": "dengue virus 2 (New Guinea C strain)", "assay": "microbe, parasite or virus in culture", "type": "cell-based"}, "[2]": {"test_system": "measles virus (CC strain)", "assay": "microbe, parasite or virus in culture", "type": "cell-based"}, "in vitro [3]": {"assay": "in vitro", "conditions": "human"}, "[4]": {"assay": "Cytotoxicity in the human norovirus replicon assay (HG23 cells)", "conditions": "human, HG23 Nov replicon cells"}, "[5]": {"test_system": "tacaribe virus (TRVL11573 strain)", "assay": "microbe, parasite or virus in culture", "type": "cell-based", "conditions": "read-out: Tacaribe virus EC50 TRVL 11573 strain"}, "in vitro [6]": {"assay": "in vitro", "conditions": "African green monkey"}, "in vitro [7]": {"assay": "in vitro", "conditions": "African green monkey, Tacaribe virus CC50 Vero"}, "Vero cells": {"test_system": "Vero cells", "conditions": "African green monkey"}, "in vitro [8]": {"assay": "in vitro", "conditions": "dog, CC50 MDCK"}, "[9]": {"test_system": "human norovirus genogroup I NoV (Norwalk virus replicon) in HG23 cells", "assay": "Human norovirus antiviral assay, qRT PCR in HG23 NoV replicon cells", "type": "cell-based", "conditions": "for pEC50: HG23 Nov replicon cells, qRT PCR intracellular RNA, read-out: EC50 human norovirus"}, "[10]": {"test_system": "yellow fever virus (YFV 17D strain)", "assay": "microbe, parasite or virus in culture", "type": "cell-based"}, "[11]": {"test_system": "influenza A (H1N1) virus (California/07/2009 strain)", "assay": "microbe, parasite or virus in culture", "type": "cell-based", "conditions": "for pEC50: read-out: EC50 California/07/2009 strain"}, "[12]": {"test_system": "enterovirus-71 (Tainan/4643/98 strain)", "assay": "Secondary assay (virus yield reduction / neutral red CPE) against enterovirus-71 in Vero 76 cells", "type": "cell-based"}, "[13]": {"test_system": "enterovirus-71 (Tainan/4643/98 strain)", "assay": "organism not typed", "type": "cell-based"}, "HCV": {"test_system": "HCV", "conditions": "literature; read-out: EC50 against HCV (RNA replication); cited from earlier work"}, "[14]": {"test_system": "chikungunya virus (S27 strain)", "assay": "microbe, parasite or virus in culture", "type": "cell-based"}, "MERS-CoV (EMC strain)": {"test_system": "MERS-CoV (EMC strain)", "assay": "microbe, parasite or virus in culture", "type": "cell-based"}, "HG23 Nov replicon cells": {"test_system": "HG23 Nov replicon cells", "assay": "Cytotoxicity in the human norovirus replicon assay (HG23 cells)", "conditions": "read-out: CC50 human norovirus assay"}, "[15]": {"test_system": "tacaribe virus (TRVL11573 strain)", "type": "cell-based"}, "[16]": {"conditions": "Dengue virus, Huh-7, read-out: EC50 dengue virus 2"}, "[17]": {"conditions": "Measles morbillivirus, Vero 76, read-out: Measles EC50 CC strain"}, "[18]": {"conditions": "read-out: Measles EC50 CC strain"}, "[19]": {"conditions": "Mammarenavirus tacaribeense, Vero"}, "[20]": {"conditions": "read-out: Yellow fever virus CC50 Huh7, Neutral Red, YFV screen"}, "[21]": {"conditions": "read-out: Yellow fever virus CC50 Huh7, Visual, YFV screen"}, "[22]": {"conditions": "Yellow fever virus, Huh-7, read-out: Yellow fever virus EC50 YFV 17D strain"}, "[23]": {"conditions": "read-out: Yellow fever virus EC50 YFV 17D strain"}, "[24]": {"conditions": "read-out: MERS-CoV CC50 Vero 76, Neutral Red, MERS-CoV screen"}, "[25]": {"conditions": "Vero 76, read-out: EC50 enterovirus-71"}}, "note": "pEC50: −log10 of the molar value. “And” between values parts separate entries of the source, which are not always exact repeats. Identical values can stand only once. Like-named read-outs stand apart in the source and are kept apart here."}
{"smiles": "CC#Cc1ncnc2c1ccn2[C@@H]1O[C@H](CO)[C@@H](O)[C@H]1O", "note": "[3.1d, 6-(Prop-1-yn-1-yl)-9-β-D-ribofuranosyl-7-deazapurine]", "values": [{"measurement": "pEC50", "setting": "[1]; [16]", "value": 6.49}, {"measurement": "pEC50", "setting": "[1]; read-out: EC50 dengue virus 2", "value": 6.43}, {"measurement": "pEC50", "setting": "[2]; [17]", "value": "< 5.44"}, {"measurement": "pEC50", "setting": "[2]; [18]", "value": "< 5.47"}, {"measurement": "CC50", "setting": "in vitro [3]; CC50", "value": 3.6, "unit": "µM"}, {"measurement": "CC50 at 3 days", "setting": "[4]", "value": 17.4, "unit": "µM"}, {"measurement": "pEC50", "setting": "[5]; [19]", "value": 5.49}, {"measurement": "pEC50", "setting": "[5]", "value": 5.66}, {"measurement": "CC50", "setting": "in vitro [6]; MERS-CoV CC50 Vero 76", "value": 3.2, "unit": "µM"}, {"measurement": "CC50", "setting": "in vitro [6]; Measles CC50 Vero 76", "value": 3.6, "unit": "µM"}, {"measurement": "CC50", "setting": "in vitro [7]", "value": 5.2, "unit": "µM"}, {"measurement": "CC50", "setting": "Huh7 cells; human", "value": 3.7, "unit": "µM"}, {"measurement": "CC50", "setting": "Huh7 cells; [20]", "value": 1.8, "unit": "µM"}, {"measurement": "CC50", "setting": "Huh7 cells; [21]", "value": 12, "unit": "µM"}, {"measurement": "CC50", "setting": "Vero cells", "value": 4.2, "unit": "µM"}, {"measurement": "CC50", "setting": "MDCK cells; dog", "value": 4.9, "unit": "µM"}, {"measurement": "CC50", "setting": "in vitro [8]", "value": 6.1, "unit": "µM"}, {"measurement": "activity against human norovirus in words", "setting": "[9]", "value": "low nanomolar activity and high selectivity"}, {"measurement": "pEC50", "setting": "[9]; Norwalk virus", "value": 8.22}, {"measurement": "pEC50", "setting": "[10]; [22]", "value": 5.54}, {"measurement": "pEC50", "setting": "[10]; [23]", "value": "< 5.74"}, {"measurement": "CC50", "setting": "Vero 76 cells; African green monkey", "value": 3.4, "unit": "µM"}, {"measurement": "CC50", "setting": "Vero 76 cells; [24]", "value": 3.3, "unit": "µM"}, {"measurement": "pEC50", "setting": "[11]; Influenza A virus, H1N1, MDCK", "value": 5.49}, {"measurement": "pEC50", "setting": "[11]", "value": 5.54}]}
{"smiles": "CCOC(=O)c1ccc(OCCC2CCN(c3ccc(C)nn3)CC2)cc1", "note": "[Pirodavir, pirodavir, reference compound]", "values": [{"measurement": "pEC50", "setting": "[12]; Vero 76, Neutral Red (Cytopathic effect/Toxicity)", "value": 6.46}, {"measurement": "EC90", "setting": "[12]; Vero 76, Visual (Virus yield reduction)", "value": 0.46, "unit": "µM"}, {"measurement": "CC50", "setting": "in vitro [6]; CC50", "value": "> 27", "unit": "µM"}, {"measurement": "pEC50", "setting": "[13]; [25]", "value": 6.40}, {"measurement": "pEC50", "setting": "[13]; read-out: EC50 enterovirus-71", "value": 6.57}]}
{"smiles": "C[C@@]1(O)[C@H](O)[C@@H](CO)O[C@H]1n1ccc2c(N)ncnc21", "note": "[7-Deaza-2′-C-methyladenosine]", "values": [{"measurement": "pEC50", "setting": "HCV", "value": 6.60}]}
{"smiles": "OC[C@H]1O[C@@H](n2ccc3c(C4CC4)ncnc32)[C@H](O)[C@@H]1O", "note": "[3.1a, 6-Cyclopropyl-9-β-D-ribofuranosyl-7-deazapurine, reference compound]", "values": [{"measurement": "activity against chikungunya virus in words", "setting": "[14]", "value": "inactive"}, {"measurement": "pEC50", "setting": "[14]; Chikungunya virus, Vero 76, read-out: EC50 chikungunya virus", "value": "< 4.00"}, {"measurement": "pEC50", "setting": "[1]; [16]", "value": 4.49}, {"measurement": "pEC50", "setting": "[1]; read-out: EC50 dengue virus 2", "value": 4.35}, {"measurement": "pEC50", "setting": "[2]; [17]", "value": 4.20}, {"measurement": "pEC50", "setting": "[2]; [18]", "value": 4.25}, {"measurement": "CC50", "setting": "in vitro [3]; CC50", "value": "> 100", "unit": "µM"}, {"measurement": "CC50", "setting": "in vitro [3]; Yellow fever virus CC50 Huh7", "value": 100, "unit": "µM"}, {"measurement": "CC50 at 3 days", "setting": "[4]", "value": "> 100", "unit": "µM"}, {"measurement": "pEC50", "setting": "[5]; [19]", "value": 4.00}, {"measurement": "pEC50", "setting": "[5]", "value": "< 4.00"}, {"measurement": "CC50", "setting": "in vitro [6]; MERS-CoV CC50 Vero 76", "value": "> 100", "unit": "µM"}, {"measurement": "CC50", "setting": "in vitro [6]; Measles CC50 Vero 76", "value": 100, "unit": "µM"}, {"measurement": "CC50", "setting": "in vitro [7]", "value": 100, "unit": "µM"}, {"measurement": "pEC50", "setting": "MERS-CoV (EMC strain); Middle East respiratory syndrome-related coronavirus, Vero 76, read-out: MERS-CoV EC50 EMC strain", "value": "< 4.00"}, {"measurement": "CC50", "setting": "Huh7 cells; [20]", "value": "> 100", "unit": "µM"}, {"measurement": "pEC50", "setting": "[13]; [25]", "value": "< 4.00"}, {"measurement": "CC50", "setting": "Vero cells", "value": "> 100", "unit": "µM"}, {"measurement": "CC50", "setting": "in vitro [8]", "value": "> 100", "unit": "µM"}, {"measurement": "pEC50", "setting": "[9]; Norwalk virus", "value": 5.60}, {"measurement": "pEC50", "setting": "[10]; [22]", "value": "< 4.00"}, {"measurement": "CC50", "setting": "Vero 76 cells; African green monkey", "value": "> 100", "unit": "µM"}, {"measurement": "CC50", "setting": "Vero 76 cells; [24]", "value": "> 100", "unit": "µM"}, {"measurement": "activity against influenza A (H1N1) in words", "setting": "[11]", "value": "not active"}, {"measurement": "pEC50", "setting": "[11]; Influenza A virus, H1N1, MDCK", "value": "< 4.00"}]}
{"smiles": "OC[C@H]1O[C@@H](n2ccc3c(C#CC4CC4)ncnc32)[C@H](O)[C@@H]1O", "note": "[3.1c, 6-Cydopropylethynyl-9-β-D-ribofuranosyl-7-deazapurine]", "values": [{"measurement": "pEC50", "setting": "[14]; read-out: EC50 chikungunya virus", "value": "< 4.00"}, {"measurement": "pEC50", "setting": "[2]; [18]", "value": "6.01 and 6.00"}, {"measurement": "CC50", "setting": "HG23 Nov replicon cells", "value": 17.5, "unit": "µM"}, {"measurement": "pEC50", "setting": "[15]", "value": 5.96}, {"measurement": "EC90", "setting": "[15]", "value": 0.65, "unit": "µM"}, {"measurement": "pEC50", "setting": "[5]", "value": 6.17}, {"measurement": "activity against MERS-CoV in words", "setting": "MERS-CoV (EMC strain)", "value": "moderately active with low selectivity index"}, {"measurement": "pEC50", "setting": "MERS-CoV (EMC strain); read-out: MERS-CoV EC50 EMC strain", "value": "5.00 and 5.17"}, {"measurement": "CC50", "setting": "Huh7 cells; [20]", "value": 60, "unit": "µM"}, {"measurement": "CC50", "setting": "Huh7 cells; [21]", "value": 32, "unit": "µM"}, {"measurement": "activity against enterovirus-71 in words", "setting": "[13]", "value": "inactive"}, {"measurement": "pEC50", "setting": "[13]; read-out: EC50 enterovirus-71", "value": "< 4.00"}, {"measurement": "CC50", "setting": "MDCK cells", "value": "> 100", "unit": "µM"}, {"measurement": "pEC50", "setting": "[9]", "value": "6.89 and 6.90"}, {"measurement": "pEC50", "setting": "[10]; [23]", "value": "6.07 and 5.74"}, {"measurement": "CC50", "setting": "Vero 76 cells", "value": "> 100", "unit": "µM"}, {"measurement": "CC50", "setting": "Vero 76 cells; [24]", "value": "> 100", "unit": "µM"}, {"measurement": "CC50", "setting": "Vero 76 cells; read-out: MERS-CoV CC50 Vero 76, Visual, MERS-CoV screen", "value": 100, "unit": "µM"}, {"measurement": "activity against influenza A (H1N1) in words", "setting": "[11]", "value": "moderate activity"}, {"measurement": "pEC50", "setting": "[11]", "value": "4.96 and 5.09"}]}
